Measurements reported in US20250352500A1, “USE OF PHENOLIC ACIDS DERIVATIVES IN TREATING ISCHEMIC STROKE” (LANZHOU UNIVERSITY, priority 2022, published 2025).

Tests used:
Assay type in all cases: in vivo, male C57/BL mice
MCAO model mice = assay: Rotating rod (balance rod) test of motor coordination after ischemia-reperfusion
Method: (§1) Grouping and administration method: Male C57/BL mice weighing 23±1 g were randomly divided into sham operation group (SHAM), model group (MCAO), compound 2 group (100 mg/kg), and compound 1 group (50 mg/kg), with 10 mice in each group. Mice in the SHAM group underwent vascular isolation, but no […] was administered, and no treatment was given before or after surgery. The model group mice were constructed with MCAO models and were not treated before and after surgery. The treatment group was treated with compound 2 or compound 1 on the basis of the model group. Mice with a neurological score of 0 after reperfusion and those that died before 72 hours post-surgery were excluded. The administration time for animal behavior tests was seven times at 0 h, 1 day, 2 days, 3 days, 4 days, 5 days, and 6 days after reperfusion, while the administration time for other experiments was three times at 0 h, 1 day, and 2 days after reperfusion. The drug was administered through the tail vein, and the sham operation group and model group were given equal amounts of saline.
The balance rod test was used to test the motor coordination of mice. The experiment was divided into four groups: sham operation group (SHAM), model group (MCAO), compound 2 group and compound 1 group. The effects of compound 2 on the recovery of behavioral function in mice after ischemia-reperfusion were comprehensively analyzed. The rotating rod test can test the motor coordination ability of mice. The experimental procedure is set to gradually accelerate the speed of the rotating rod from 10 rpm to 40 rpm within 300 seconds. Record the time that the mouse stays on the rotating stick. The mice were trained 3 days in advance. Select mice that can stay on the rotating rod for about 300 seconds for the next experiment. The time that the mice spent on the rotating rod before the model was constructed was selected as the pre-operative test value. The trained mice were subjected to MCA occlusion for 60 minutes and then reperfusion. Mice in the SHAM group, MCAO group, Compound 2 group, and Compound 1 group underwent rotating rod testing on days 1, 3, 5, and 7 post-surgeries, respectively, and the duration of their stay on the rotating rod was recorded.
After reperfusion for 1 to 3 days, the motor coordination ability continued to decline, but gradually recovered after 3 days, but the degree of recovery was extremely low.

GFAP [1] = assay: GFAP immunofluorescence in brain tissue (astrocytes); conditions: 72 h ischemia-reperfusion, three days of administration; compound 2 100 mg/kg, compound 1 50 mg/kg; MCAO group 481±67; mean±SEM, n=3
Method: as §1, with “The administration time for animal behavior tests was seven times at 0 h, 1 day, 2 days, 3 days, 4 days, 5 days, and 6 days after reperfusion, while the administration time for other experiments was three times at 0 h, 1 day, and 2 days after reperfusion. The drug was administered through the tail vein, and the sham operation group and model group were given equal amounts of saline.” left out
To investigate whether compound 2 has an effect on the activation and proliferation of astrocytes during ischemia-reperfusion, this study used immunofluorescence experiments to observe and detect the fluorescence expression of GFAP in brain tissues from the sham operation group, model group, compound 2 group, and compound 1 group. […] After 72 hours of ischemia-reperfusion, the activation and proliferation of GFAP protein in astrocytes in the brain region were analyzed by immunofluorescence staining. […]

GFAP [2] = assay: GFAP protein Western blot in brain tissue; conditions: for GFAP protein expression reduced compared with MCAO group: 72 h ischemia-reperfusion, three days of administration, compound 2 100 mg/kg, compound 1 50 mg/kg
Method: as §1
After 72 hours of ischemia-reperfusion, the protein expression level of GFAP, a marker of astrocytes in brain tissue, was detected with Western blot. The representative Western blot (WB) images of GFAP protein expression in the brain tissues of the sham operation group (SHAM), model group (MCAO), compound 2 group, and compound 1 group are shown in FIG. 6A, and the quantitative statistical results are shown in FIG. 6B. […] In this experiment, β-actin was used as an internal reference protein. n=3, data are mean±SEM, analyzed using one-way ANOVA and Tukey's HSD test. *P<0.05, **P<0.01, ***P<0.001. ^#P<0.05, ^##P<0.01, ^###P<0.001. * indicates comparison with the SHAM group, # indicates comparison with the compound 2 group.

iNOS = assay: RT-qPCR of iNOS mRNA in brain tissue; conditions: 72 h, three days of administration, compound 2 100 mg/kg, compound 1 50 mg/kg, P<0.05
Method: as §1, with “The administration time for animal behavior tests was seven times at 0 h, 1 day, 2 days, 3 days, 4 days, 5 days, and 6 days after reperfusion, while the administration time for other experiments was three times at 0 h, 1 day, and 2 days after reperfusion. The drug was administered through the tail vein, and the sham operation group and model group were given equal amounts of saline.” left out
(§2) To investigate the effect of compounds on the expression of inflammatory factors after ischemia-reperfusion, this study used immunofluorescence experiments to observe the expression of TNF-α, IL-1β, IL-6, iNOS, and COX2 proteins in brain tissue. […] The concentrations of TNF-α, IL-1β, and IL-6 in brain homogenate were detected by enzyme-linked immunosorbent assay (ELISA), and the expression level of TNF-α protein in brain tissue was detected by Western blot.
After 72 hours of ischemia-reperfusion, the mRNA expression levels of TNF-α, IL-1β, IL-6, iNOS, and COX2 in brain tissue were detected and analyzed by RT-qPCR. […]

TNF-α = assay: ELISA of TNF-α in brain homogenate; conditions: 72 h, three days of administration, compound 2 100 mg/kg, compound 1 50 mg/kg
Method: as §1, with “The administration time for animal behavior tests was seven times at 0 h, 1 day, 2 days, 3 days, 4 days, 5 days, and 6 days after reperfusion, while the administration time for other experiments was three times at 0 h, 1 day, and 2 days after reperfusion. The drug was administered through the tail vein, and the sham operation group and model group were given equal amounts of saline.” left out
as §2
(§3) After 72 hours of ischemia-reperfusion, the expression levels of inflammatory factors TNF-α, IL-1β, and IL-6 in the mouse brain homogenate were detected.

IL-1β = assay: ELISA of IL-1β in brain homogenate; conditions: 72 h, three days of administration, compound 2 100 mg/kg, compound 1 50 mg/kg
Method: as §1, with “The administration time for animal behavior tests was seven times at 0 h, 1 day, 2 days, 3 days, 4 days, 5 days, and 6 days after reperfusion, while the administration time for other experiments was three times at 0 h, 1 day, and 2 days after reperfusion. The drug was administered through the tail vein, and the sham operation group and model group were given equal amounts of saline.” left out
as §2, §3

IL-6 = assay: ELISA of IL-6 in brain homogenate; conditions: 72 h, three days of administration, compound 2 100 mg/kg, compound 1 50 mg/kg
Method: as §1, with “The administration time for animal behavior tests was seven times at 0 h, 1 day, 2 days, 3 days, 4 days, 5 days, and 6 days after reperfusion, while the administration time for other experiments was three times at 0 h, 1 day, and 2 days after reperfusion. The drug was administered through the tail vein, and the sham operation group and model group were given equal amounts of saline.” left out
as §2, §3

Row | SMILES | Motor coordination ability (time on rotating rod) compared with MCAO group (MCAO model mice; compound 1 50 mg/kg tail vein, time not stated) | Number of GFAP-positive cells (GFAP [1]) | GFAP protein expression reduced compared with MCAO group (GFAP [2]) | iNOS mRNA expression compared with MCAO group (iNOS) | Decrease in TNF-α expression compared with MCAO group (TNF-α) | Decrease in IL-1β expression compared with MCAO group (IL-1β) | Decrease in IL-6 expression compared with MCAO group (IL-6) | Motor coordination ability (time on rotating rod) compared with model group (MCAO) (MCAO model mice; at 5 and 7 days, compound 2 100 mg/kg tail vein, P<0.05) | Motor coordination (time on rotating rod) compared with model group (MCAO) (MCAO model mice; at 7 days of reperfusion, compound 2 100 mg/kg tail vein, P<0.001) | Motor coordination ability (time on rotating rod) compared with the compound 1 group (MCAO model mice; compound 2 100 mg/kg vs compound 1 50 mg/kg, P<0.001) | GFAP protein expression reduced compared with the compound 1 group (GFAP [2]; 72 h, compound 2 100 mg/kg vs compound 1 50 mg/kg, P<0.05)
1 | O=C(O)c1cc(O)ccc1O [compound 1] | improved | 327±50 /mm^2 | 25±10% | significantly reduced | reduced to varying degrees | reduced to varying degrees | reduced to varying degrees |  |  |  | 
2 | O=C(O)c1cc(OP(=O)(O)O)ccc1OP(=O)(O)O [compound 2] |  | 195±45 /mm^2 | 43±12% | significantly reduced | 40±10% | 32±9% | 40±10% | significantly improved | significantly improved | significantly improved | 45±10%
